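Results reflect a 48-hour exposure of cells in 96-well plates to compound at five concentrations. The concentration for 50% growth inhibition is given as GI50.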 Calls of active or inactive are those of the source. Rule as the data show it: active = GI50 up to about 1.1 µM and inactive = higher.
How the values were obtained:
Assay in all cases: NCI tumour cell line growth inhibition, 48 h
[1] = system: K562
[2] = system: OVCAR-8
[3] = system: EKVX
[4] = system: HT-29
[5] = system: SK-MEL-5
[6] = system: OVCAR-3
[7] = system: SNB-19
[8] = system: 786-0
[9] = system: SK-MEL-2
[10] = system: MOLT-4
[11] = system: HOP-62
[12] = system: SF-268
[13] = system: SNB-75
[14] = system: LOX IMVI
[15] = system: LXFL 529
[16] = system: RPMI-8226
[17] = system: SF-295
[18] = system: OVCAR-4
[19] = system: CCRF-CEM
[20] = system: KM-20L2
[21] = system: DMS-114
[22] = system: M14
[23] = system: M19-MEL
[24] = system: UO-31
[25] = system: IGROV-1
[26] = system: SNB-78
[27] = system: U-251
[28] = system: COLO 205
[29] = system: NCI-H226
[30] = system: A498
[31] = system: CAKI-1
[32] = system: SN12C
[33] = system: HCT-15
[34] = system: UACC-62
[35] = system: DLD-1
[36] = system: HCT-116
[37] = system: Malme-3M
[38] = system: SF-539
[39] = system: OVCAR-5
[40] = system: NCI-H460
[41] = system: XF498
[42] = system: NCI-H23
[43] = system: SW-620
[44] = system: SR
[45] = system: A549
[46] = system: HOP-92
[47] = system: ACHN
[48] = system: SK-OV-3
[49] = system: HL-60
[50] = system: KM12
[51] = system: TK-10
[52] = system: HOP-18
[53] = system: HCC 2998
[54] = system: DMS-273
[55] = system: UACC-257
[56] = system: SK-MEL-28
[57] = system: NCI-H522
[58] = system: RXF 393
[59] = system: MCF7
[60] = system: NCI/ADR-RES

In the case of CC(C)C1NC(=O)[C@H](C)OC(=O)[C@@H](C(C)C)NC(=O)[C@@H](C)OC(=O)C(C(C)C)NC(=O)[C@H](C)OC1=O (stereo not given in full), the GI50 [1] is reported as > 41.7 µM (inactive), the GI50 [2] is reported as > 100 µM (inactive) and the GI50 [3] is reported as > 100 µM (inactive). For the same compound, the GI50 [4] was > 100 µM (inactive), the GI50 [5] was > 100 µM (inactive) and the GI50 [6] was > 100 µM (inactive). The GI50 [7] was > 100 µM (inactive), the GI50 [8] was 20.9 µM (inactive) and the GI50 [9] was > 100 µM (inactive). For the same compound, the GI50 [10] was > 100 µM (inactive), the GI50 [11] was > 100 µM (inactive) and the GI50 [12] was > 100 µM (inactive). The GI50 [13] was > 100 µM (inactive), the GI50 [14] was > 49.3 µM (inactive) and the GI50 [15] was > 66.2 µM (inactive). The GI50 [16] was > 47.9 µM (inactive), the GI50 [17] was > 100 µM (inactive) and the GI50 [18] was > 67.1 µM (inactive). For the same compound, the GI50 [19] was > 100 µM (inactive), the GI50 [20] was 56.4 µM (inactive) and the GI50 [21] was > 63.8 µM (inactive). The GI50 [22] was > 95.1 µM (inactive), the GI50 [23] was > 55.5 µM (inactive) and the GI50 [24] was > 100 µM (inactive). For the same compound, the GI50 [25] was > 100 µM (inactive), the GI50 [26] was > 100 µM (inactive) and the GI50 [27] was > 68.4 µM (inactive). For the same compound, the GI50 [28] was > 54.6 µM (inactive), the GI50 [29] was > 100 µM (inactive) and the GI50 [30] was > 100 µM (inactive). The GI50 [31] was > 100 µM (inactive), the GI50 [32] was > 100 µM (inactive) and the GI50 [33] was 17.5 µM. For the same compound, the GI50 [34] was > 100 µM (inactive), the GI50 [35] was > 59.6 µM (inactive) and the GI50 [36] was > 86.5 µM (inactive). The GI50 [37] was > 100 µM (inactive), the GI50 [38] was > 50.9 µM (inactive) and the GI50 [39] was > 100 µM (inactive). The GI50 [40] was > 79.4 µM (inactive), the GI50 [41] was 94 µM (inactive) and the GI50 [42] was > 100 µM (inactive). The GI50 [43] was > 28.1 µM (inactive), the GI50 [44] was 29.8 µM (inactive) and the GI50 [45] was > 100 µM (inactive). The GI50 [46] was > 100 µM (inactive), the GI50 [47] was > 100 µM (inactive) and the GI50 [48] was > 100 µM (inactive). For the same compound, the GI50 [49] was > 100 µM (inactive), the GI50 [50] was > 88.7 µM (inactive) and the GI50 [51] was > 100 µM (inactive). The GI50 [52] was > 100 µM (inactive), the GI50 [53] was > 100 µM (inactive) and the GI50 [54] was 59.2 µM (inactive). For the same compound, the GI50 [55] was > 100 µM (inactive), the GI50 [56] was > 100 µM (inactive) and the GI50 [57] was > 100 µM (inactive).
For N#Cc1ccc(/C=N\N2C(=O)c3ccccc3C2=O)cc1, the GI50 [1] was > 100 µM (inactive), the GI50 [2] was > 100 µM (inactive) and the GI50 [58] was > 100 µM (inactive). The GI50 [3] was > 100 µM (inactive), the GI50 [4] was > 100 µM (inactive) and the GI50 [5] was > 100 µM (inactive). For the same compound, the GI50 [6] was > 100 µM (inactive), the GI50 [7] was > 100 µM (inactive) and the GI50 [8] was > 100 µM (inactive). The GI50 [9] was > 100 µM (inactive), the GI50 [10] was > 100 µM (inactive) and the GI50 [11] was > 100 µM (inactive). The GI50 [12] was > 100 µM (inactive), the GI50 [13] was > 100 µM (inactive) and the GI50 [14] was > 100 µM (inactive). The GI50 [15] was > 100 µM (inactive), the GI50 [16] was > 100 µM (inactive) and the GI50 [17] was > 100 µM (inactive). For the same compound, the GI50 [18] was > 100 µM (inactive), the GI50 [19] was > 100 µM (inactive) and the GI50 [20] was > 100 µM (inactive). The GI50 [21] was > 100 µM (inactive), the GI50 [22] was > 100 µM (inactive) and the GI50 [23] was > 100 µM (inactive). For the same compound, the GI50 [24] was > 100 µM (inactive), the GI50 [25] was > 100 µM (inactive) and the GI50 [26] was > 100 µM (inactive). The GI50 [29] was > 100 µM (inactive), the GI50 [30] was > 100 µM (inactive) and the GI50 [31] was > 100 µM (inactive). For the same compound, the GI50 [32] was > 100 µM (inactive), the GI50 [33] was greater than 100 µM and the GI50 [34] was > 100 µM (inactive). For the same compound, the GI50 [35] was > 100 µM (inactive), the GI50 [36] was > 100 µM (inactive) and the GI50 [37] was > 100 µM (inactive). The GI50 [38] was > 100 µM (inactive), the GI50 [39] was > 100 µM (inactive) and the GI50 [40] was > 100 µM (inactive). The GI50 [41] was > 100 µM (inactive), the GI50 [42] was > 100 µM (inactive) and the GI50 [43] was > 100 µM (inactive). For the same compound, the GI50 [44] was > 100 µM (inactive), the GI50 [45] was > 100 µM (inactive) and the GI50 [46] was > 100 µM (inactive). The GI50 [47] was > 100 µM (inactive), the GI50 [49] was > 100 µM (inactive) and the GI50 [50] was > 100 µM (inactive). For the same compound, the GI50 [51] was > 100 µM (inactive), the GI50 [52] was > 100 µM (inactive) and the GI50 [53] was > 100 µM (inactive). For the same compound, the GI50 [54] was > 100 µM (inactive), the GI50 [55] was > 100 µM (inactive) and the GI50 [56] was > 100 µM (inactive).
For CC(=O)/C=C/c1c[nH]c(=O)[nH]c1=O, the GI50 [1] was 229 µM (inactive), the GI50 [2] was 241 µM (inactive) and the GI50 [58] was 126 µM (inactive). For the same compound, the GI50 [3] was 239 µM (inactive), the GI50 [4] was 420 µM (inactive) and the GI50 [5] was 271 µM (inactive). The GI50 [6] was 180 µM (inactive), the GI50 [7] was 295 µM (inactive) and the GI50 [9] was 197 µM (inactive). The GI50 [10] was 179 µM (inactive), the GI50 [11] was 303 µM (inactive) and the GI50 [12] was 168 µM (inactive). For the same compound, the GI50 [13] was 217 µM (inactive), the GI50 [14] was 97.5 µM (inactive) and the GI50 [16] was 129 µM (inactive). For the same compound, the GI50 [17] was 304 µM (inactive), the GI50 [18] was 508 µM (inactive) and the GI50 [19] was 92 µM (inactive). For the same compound, the GI50 [20] was 213 µM (inactive), the GI50 [21] was 242 µM (inactive) and the GI50 [23] was 390 µM (inactive). For the same compound, the GI50 [24] was 130 µM (inactive), the GI50 [25] was 151 µM (inactive) and the GI50 [26] was 159 µM (inactive). For the same compound, the GI50 [27] was 151 µM (inactive), the GI50 [28] was 154 µM (inactive) and the GI50 [59] was 157 µM (inactive). The GI50 [29] was 204 µM (inactive), the GI50 [30] was 214 µM (inactive) and the GI50 [31] was 74.3 µM (inactive). The GI50 [32] was 142 µM (inactive), the GI50 [33] was 210 µM and the GI50 [34] was 236 µM (inactive). The GI50 [35] was 179 µM (inactive), the GI50 [36] was 128 µM (inactive) and the GI50 [37] was 243 µM (inactive). For the same compound, the GI50 [38] was 214 µM (inactive), the GI50 [39] was 303 µM (inactive) and the GI50 [40] was 186 µM (inactive). For the same compound, the GI50 [41] was 38.4 µM (inactive), the GI50 [42] was 257 µM (inactive) and the GI50 [43] was 223 µM (inactive). For the same compound, the GI50 [45] was 305 µM (inactive), the GI50 [46] was 8.13 µM (inactive) and the GI50 [48] was 166 µM (inactive). The GI50 [49] was 97.9 µM (inactive), the GI50 [50] was 187 µM (inactive) and the GI50 [52] was 155 µM (inactive). For the same compound, the GI50 [53] was 236 µM (inactive), the GI50 [54] was 89.1 µM (inactive) and the GI50 [55] was 265 µM (inactive). The GI50 [56] was 190 µM (inactive), the GI50 [57] was 94.4 µM (inactive) and the GI50 [60] was 151 µM (inactive).
